In patent publication US5017574A, “Novel imidazobenzodiazepines” (Roussel Uclaf, priority 1989, dated 1991):

Columns and labels:
[1] = target: benzodiazepine receptors; assay: Affinity for benzodiazepine receptors: inhibition of specific 3H-flunitrazepam binding (Test 1); conditions: 0.6×10^-9 mol 3H-flunitrazepam; membranes from the rear portion of the rat brain; read-out: Test 1: concentration which inhibited 50% of the specific binding of 3H-labelled flunitrazepam (IC50)
Procedure: The affinity of the active ingredients for the benzodiazepine receptors was measured using a radioactively labelled (^3 H) compound, flunitrazepam, in a modified version of the method of Squires et al (Nature, 1977, Vol. 266, p. 732). The values given in Table 2 below are the concentration (mol×10^-9) of the test compound which inhibited 50% of the specific binding of 0.6×10^-9 mol of ^3 H-labelled flunitrazepam in preparation of membranes from the rear portion of the brain in rats (IC50 values).

[2] = system: benzodiazepine receptors; assay: In vivo binding to benzodiazepine receptors (Test 2); conditions: ip
Procedure: Measurement of in vivo binding to benzodiazepine receptors was carried out according to the method described by Goeders at al., Life Sciences (1985) Vol. 37, p. 345.

Compound	IC50 [1]	Test 2: ED50, in vivo binding to benzodiazepine receptors [2]
CN1Cc2c(C3OCCS3)ncn2-c2cccc(F)c2C1=O (stereo not drawn) [Example 6, 5,6-dihydro-7-fluoro-5-methyl-3-(1,3-oxathiolan-2-yl)-imidazo[1,5-a][1,4]benzodiazepine-6(4H)-one]	36 nM	0.22 mg/kg
CN1Cc2c(C3OCCO3)ncn2-c2cccc(C(F)(F)F)c2C1=O [Example 3, 5,6-dihydro-3-(1,3-dioxolan-2-yl)-5-methyl-7-trifluoromethyl-imidazo[1,5-a][1,4]benzodiazepine-6(4H)-one]	73 nM	0.09 mg/kg
CN1Cc2c(C3OCCS3)ncn2-c2cccc(C(F)(F)F)c2C1=O (stereo not drawn) [Example 4, 5,6-dihydro-5-methyl-3-(1,3-oxathiolan-2-yl)-7-trifluoromethyl-imidazo[1,5-a][1,4]benzodiazepine-6(4H)-one]	10 nM	0.08 mg/kg
CN1Cc2c(C3OCCS3)ncn2-c2ccccc2C1=O (stereo not drawn) [Example 5, 5,6-dihydro-5-methyl-3-(1,3-oxathiolan-2-yl)-imidazo[1,5-a][1,4]benzodiazepine-6(4H)-one]	339 nM	0.8 mg/kg
CN1Cc2c(C3OCCO3)ncn2-c2ccccc2C1=O [Example 1, 5,6-dihydro-3-(1,3-dioxolan-2-yl)-5-methyl-imidazo[1,5-a][1,4]benzodiazepine-6(4H)-one]	1080 nM	1.0 mg/kg
CN1Cc2c(C3SCCS3)ncn2-c2ccccc2C1=O [Example 2, 5,6-dihydro-3-(1,3-dithiolan-2-yl)-5-methyl-imidazo[1,5-a][1,4]benzodiazepine-6(4H)-one]	94 nM	7.0 mg/kg
